Target: T1, human-derived anti-asialoglycoprotein receptors (ASGPR) (Homo sapiens, UniProt P07306)
T1 construct: purchased Sino Biological 10773-H07H
T1 sequence (P07306 1-291): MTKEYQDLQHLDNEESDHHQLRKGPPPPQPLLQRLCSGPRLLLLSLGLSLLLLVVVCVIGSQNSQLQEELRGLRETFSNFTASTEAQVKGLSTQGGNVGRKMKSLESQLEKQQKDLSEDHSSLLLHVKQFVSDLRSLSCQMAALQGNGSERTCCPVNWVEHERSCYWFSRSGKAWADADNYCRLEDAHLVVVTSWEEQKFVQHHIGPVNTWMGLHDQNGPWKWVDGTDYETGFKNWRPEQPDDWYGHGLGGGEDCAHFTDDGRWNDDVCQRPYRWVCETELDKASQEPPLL
Test: Binding affinity of the compound to human-derived ASGPR by surface plasmon resonance (SPR)
Protocol: Assay Example 1. Test of the Binding Affinity of the Compound to Human-Derived […]
The binding affinity of the compound to human-derived […] (ASGPR) was tested by surface plasmon resonance (SPR) technique, and the kinetic KD value of the compound was used as an indicator to evaluate the binding affinity of the compound to ASGPR, thereby reflecting the ability of the compound to specifically target hepatocytes for delivery of nucleic acid molecules.
Asialoglycoprotein Receptor Protein, Mouse, Recombinant (His Tag), Sino biological-50083-M07H-50 μg; Asialoglycoprotein Receptor Protein, Human, Recombinant (His Tag), Sino biological-10773-H07H-50 μg
3.1 The two proteins were respectively dissolved in 1×PBS to obtain a solution of 0.25 mg/mL, and the compound to be tested was dissolved in DMSO. The running buffer (10 mM HEPES, 150 mM NaCl, 0.05% Tween 20, 50 mM CaCl2, 50 μM EDTA) was prepared and filtered through a 0.22 μm membrane.
3.2 The NiHC 1500M Chip was docked into a biacore, and the system was switched to a running buffer.
3.3 Protein labeling: The chip was first treated with 350 mM EDTA at 30 μl/min for 5 min, rinsed with running buffer for 2 min, and then bound with 40 mM NiCl2 at 30 μl/min for 2 min. A protein diluted to 5 μg/mL with running buffer was then labeled on the chip at a flow rate of 10 μl/min for a final labeling amount of 1500-2000 RU.
3.4 The instrument system was switched to a running buffer containing 2% DMSO.
3.5 The compound with a starting concentration of 2 μM was serially diluted 2-fold with a running buffer containing 2% DMSO to obtain 9 concentrations. The final concentration of DMSO was 2%.
3.6 Testing: For each cycle, the compound was bound for 60 s and dissociated for 180 s at a flow rate of 50 μl/min. The compound was tested in order of concentration from low to high. Before the gradient testing of the compound, 4 cycles of blank (running buffer with 2% DMSO) were introduced, and solvent correction was performed with 1.5%-3.5% DMSO (6 concentrations).
The data were analyzed with Biacore Insight Evaluation Software, kinetics was analyzed with a 1:1 model, and affinity was analyzed with a steady state affinity model.

## COc1ccc(C(OC[C@@H]2C[C@@H](O)CN2C(=O)CCCCCCCCCCOCC(COCCC(=O)NCCCNC(=O)CCCCOC2OC(CO)C(O)C(O)C2NC(C)=O)(COCCC(=O)NCCCNC(=O)CCCCOC2OC(CO)C(O)C(O)C2NC(C)=O)NC(=O)CCC(=O)NCCCNC(=O)CCCCOC2OC(CO)C(O)C(O)C2NC(C)=O)(c2ccccc2)c2ccc(OC)cc2)cc1 (stereo partly drawn) [Compound D-01-M]
SPR
  binding affinity in the SPR assay (in words): good binding affinity
SPR (Biacore 8k), kinetic KD, 1:1 model, His-tagged recombinant protein on NiHC 1500M chip
  Kd: 15.6 nM
SPR, association rate constant, 1:1 model, read-out: Ka
  kon: 1.08e+06 M⁻¹ s⁻¹
SPR, dissociation rate constant, 1:1 model
  koff: 0.0168 s⁻¹

From patent US20240033278A9, “CONJUGATE GROUP AND CONJUGATE” (MEDSHINE DISCOVERY INC., priority 2020, published 2024)
